Like-named read-outs stand apart in the source and are kept apart here. Starred links: 1 amine or outer side, 2 acyl side, 3 side chain; linkers in the order of their positions; H or OH if unused. Non-standard residues stand in square brackets, D forms with d. Groups on a side chain read outwards from the residue. No end group written: not given here. *: point of attachment. C20 diacid = O=C(O)CCCCCCCCCCCCCCCCCCC(=O)*; C18 diacid = O=C(O)CCCCCCCCCCCCCCCCC(=O)*; γGlu = O=C(O)[C@H](CCC(=O)[*:2])N[*:1]; εLys = N[C@@H](CCCCN[*:1])C(=O)[*:2]; Aib = CC(C)(N)C(=O)O
Experiments:
Assay type in all cases: cell-based
[1] = molecular target: T1, hGLP1R (Homo sapiens, UniProt P43220); assay: hGLP1R CreLuc reporter gene assay in 0.5% and 100% plasma; settings: CreLuc reporter gene assay
T1 construct: expressed in transfected cells; host or cells: HEK-293 cells carrying a CRE-luciferase reporter gene
T1 sequence (P43220 24-463): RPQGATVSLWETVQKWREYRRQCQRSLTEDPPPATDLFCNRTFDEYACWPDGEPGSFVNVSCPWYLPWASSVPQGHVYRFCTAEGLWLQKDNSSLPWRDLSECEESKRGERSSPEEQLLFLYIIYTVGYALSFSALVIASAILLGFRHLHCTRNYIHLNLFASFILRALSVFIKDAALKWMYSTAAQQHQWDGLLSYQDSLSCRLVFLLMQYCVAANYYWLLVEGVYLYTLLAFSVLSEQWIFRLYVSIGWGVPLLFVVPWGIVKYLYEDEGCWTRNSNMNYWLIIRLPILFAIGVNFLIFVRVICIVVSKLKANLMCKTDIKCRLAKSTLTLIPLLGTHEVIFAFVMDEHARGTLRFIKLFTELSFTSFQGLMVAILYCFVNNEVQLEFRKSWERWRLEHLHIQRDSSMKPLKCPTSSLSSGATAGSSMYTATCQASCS
Summary of the method: (§1)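 HEK cells (GLP-1R, NPY2R) or CHO cells (GIPR) carrying a CRE-luciferase reporter, incubated 4 h at 37 °C with peptides in HBSS/20 mM HEPES pH 7.4 plus 0.5% human plasma, or in 100% plasma. Luminescence read; EC50 from 8-point variable-slope sigmoid fits.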

[2] = molecular target: T2, hGIPR (Homo sapiens, UniProt P48546); assay: hGIPR CreLuc reporter gene assay in 0.5% and 100% plasma; settings: CreLuc reporter gene assay
T2 construct: expressed in transfected cells; host or cells: CHO cells carrying a CRE-luciferase reporter gene
T2 sequence (P48546 22-466): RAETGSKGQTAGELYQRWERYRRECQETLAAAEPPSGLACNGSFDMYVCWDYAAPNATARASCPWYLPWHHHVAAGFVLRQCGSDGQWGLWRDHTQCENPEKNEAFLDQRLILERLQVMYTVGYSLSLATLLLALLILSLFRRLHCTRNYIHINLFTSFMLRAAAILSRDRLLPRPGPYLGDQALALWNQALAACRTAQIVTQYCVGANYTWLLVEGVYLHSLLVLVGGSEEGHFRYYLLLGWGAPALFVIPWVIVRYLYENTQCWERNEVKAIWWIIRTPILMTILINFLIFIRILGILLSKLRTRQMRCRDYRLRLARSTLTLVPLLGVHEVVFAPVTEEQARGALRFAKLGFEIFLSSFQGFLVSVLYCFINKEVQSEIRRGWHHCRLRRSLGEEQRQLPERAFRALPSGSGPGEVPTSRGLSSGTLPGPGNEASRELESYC
Summary of the method: as §1

[3] = molecular target: T3, hNPY2R (Homo sapiens, UniProt P49146); assay: hNPY2R CreLuc reporter gene assay in 0.5% and 100% plasma; settings: CreLuc reporter gene assay, 0.5% human plasma; read-out: hNPY2R 0.5% hP
T3 construct: expressed in transfected cells; host or cells: HEK-293 cells carrying a CRE-luciferase reporter gene
T3 sequence (P49146 1-381): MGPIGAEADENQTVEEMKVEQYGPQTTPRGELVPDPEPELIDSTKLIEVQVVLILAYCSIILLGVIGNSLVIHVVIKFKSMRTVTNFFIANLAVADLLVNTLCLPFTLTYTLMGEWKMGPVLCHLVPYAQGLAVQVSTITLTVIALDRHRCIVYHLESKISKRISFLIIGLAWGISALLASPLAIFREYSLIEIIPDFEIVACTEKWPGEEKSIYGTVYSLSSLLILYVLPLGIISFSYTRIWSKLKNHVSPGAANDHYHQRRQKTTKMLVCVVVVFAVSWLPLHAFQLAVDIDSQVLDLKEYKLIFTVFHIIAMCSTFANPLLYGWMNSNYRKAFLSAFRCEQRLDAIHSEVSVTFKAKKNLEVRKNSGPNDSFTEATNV
Excerpt: Example 1: hGLPR/hGIPR/hNPY2R CreLuc Assay in 0.5% and 100% Plasma
CHO and HEK-293 recombinant cell lines express a luciferase reporter gene under control of the cAMP responsive element (CRE). As a second recombinant protein the GLP-1 and NPY2 receptors were expressed in the reporter gene HEK cells, and the GIP receptor was expressed in the reporter gene CHO cells, respectively. Stimulation of these recombinant cells with an agonist leads to an increase of intracellular cAMP levels. In the presence of cAMP, the transcription factor CRE binding protein (CREB) binds to the CRE and to the CREB binding protein (CBP), which leads to transcription of the luciferase reporter gene. Peptides upon serial-dilution in 100% DMSO were transferred into 384-well assay plates with 5 μl pre-dispensed assay buffer (1×HBSS, 20 mM HEPES, pH7.4 supplemented with 0.5% human plasma) using acoustic dispensing on a Labcyte ECHO. Cryo-preserved transgenic reporter gene cells were thawed in assay buffer. 20 μl (10.000 cells/well) were added to the plate with the peptides and incubated for 4 hours at 37° C. in a humidified incubator. Following incubation, assay plates are equilibrated to room temperature, followed by addition of 25 μl of Bright-GIo™ Luciferase reagent, incubation at room temperature for 10 minutes and analysis of luminescence (Envision Reader). Concentration response evaluation of compounds was performed with 8 concentrations of peptides (covering four decades). EC50 values were calculated by non-linear regression using sigmoid concentration-response with variable slope. The same assays were run in the presence of 100% plasma with no additional buffer constituents.

[4] = 0.5% human plasma, read-out: hGLP1R 0.5% hP
[5] = 0.5% human plasma, read-out: hGIPR 0.5% hP
[6] = 100% human plasma, read-out: hGLP1R 100% hP

Substance | EC50 [1, 4] | EC50 [2, 5] | EC50 ([2]; 100% human plasma, read-out: hGIPR 100% hP) | EC50 [3] | EC50 [1, 6]
H-Y[Aib]EGTFTSDYSI[Aib]LEKQAQ[Aib]EFVQWLIK([εLys-γGlu-γGlu-γGlu-γGlu-γGlu-C18 diacid])GGPSEGASLRHYYNWLTRQRY-NH2 [Compound 154, Y-Aib-E-G-T-F-T-S-D-Y-S-I-Aib-L-E-K-Q-A-Q-Aib-E-F-V-Q-W-L-I-K(1,3)-GGPSEGASLRHYYNWLTRQRY-NH2.C18DA-gGlu-gGlu-gGlu-gGlu-gGlu-eLys(1,2)] | 0.26 nM | 0.4 nM | 1.07 nM | 10.7 nM | 
H-Y[Aib]EGTFTSDYSI[Aib]LEKQAQ[Aib]AFVEWLIK([εLys-γGlu-γGlu-γGlu-γGlu-γGlu-γGlu-C20 diacid])GGPSEYVSLRHYYNWLTRQRY-NH2 [Compound 217, Y-Aib-E-G-T-F-T-S-D-Y-S-I-Aib-L-E-K-Q-A-Q-Aib-A-F-V-E-W-L-I-K(1,3)-GGPSEYVSLRHYYNWLTRQRY-NH2.C20DA-gGlu-gGlu-gGlu-gGlu-gGlu-gGlu-eLys(1,2)] |  | 0.74 nM |  | 18.6 nM | 17.2 nM
Y[Aib]EGTFTSDYSI[Aib]LEKQAQ[Aib]AFVEWLIK([γGlu-γGlu-γGlu-γGlu-γGlu-C20 diacid])GGPSSGASLRHYYNWLTRQRY-NH2 [Compound 238, Y-Aib-E-G-T-F-T-S-D-Y-S-I-Aib-L-E-K-Q-A-Q-Aib-A-F-V-E-W-L-I-K(1,3)-GGPSSGASLRHYYNWLTRQRY-NH2.C20DA-gGlu-gGlu-gGlu-gGlu-gGlu(1,2)] | 0.1 nM |  |  | 11.6 nM | 2.55 nM
H-Y[Aib]EGTFTSDYSI[Aib]LEKQAQ[Aib]AFVEWLIK([εLys-γGlu-γGlu-γGlu-γGlu-γGlu-γGlu-C20 diacid])GGPSSAASLRHYYNWLTRQRY-NH2 [Compound 98, Y-Aib-E-G-T-F-T-S-D-Y-S-I-Aib-L-E-K-Q-A-Q-Aib-A-F-V-E-W-L-I-K(1,3)-GGPSSAASLRHYYNWLTRQRY-NH2.C20DA-gGlu-gGlu-gGlu-gGlu-gGlu-gGlu-eLys(1,2)] | 0.31 nM |  |  | 15.1 nM | 
